Test results reported in patent US10765672B2, “Pharmaceutical formulations of a HIF hydroxylase inhibitor” (FibroGen, Inc., priority 2013, dated 2020).

Test: Solid state sunlight exposure of Compound A powder, reverse phase HPLC
Format: physicochemical
Settings: for purity value as measured by reverse phase HPLC: Compound A dry powder
Method: Approximately 500 mg of Compound A dry powder was placed in a 1-gallon polyethylene bag and exposed to sunlight for two months consecutively during daylight hours. The powder was in a very thin layer and the bag was shaken often to ensure that all the powder and not just the top layer was exposed to sunlight. A control sample of Compound A powder was stored in an amber vial in the dark for the same amount of time for comparison purposes. […] The light-exposed sample and the control sample were analyzed by HPLC to evaluate differences in their composition. The HPLC method used a reverse phase Zorbax Eclipse XDB-C8, 3.5 μm, 4.6×150 mm column. The mobile phase was comprised of water and acetonitrile mixtures acidified with trifluoroacetic acid. Gradient elution with increasing acetonitrile provided chromatograms of the control sample of Compound A (FIG. 1, before light exposure) and the light-exposed sample of Compound A (FIG. 1, after light exposure) with UV detection at 230 nm.
After exposure to sunlight, a new peak appeared in the chromatogram evidencing a new molecule.

purity value as measured by reverse phase HPLC (after exposure to sunlight for two months): 98.4%
purity value as measured by reverse phase HPLC (before exposure to sunlight): 99.1%
visual inspection (colour) (control sample stored in amber vial in the dark, two months): yellow
visual inspection (colour) (light-exposed sample, two months sunlight): off-white
SMILES: Cc1nc(C(=O)NCC(=O)O)c(O)c2ccc(Oc3ccccc3)cc12 [Compound A, [(4-hydroxy-1-methyl-7-phenoxy-isoquinoline-3-carbonyl)-amino]-acetic acid]
